We go through 33 compounds from patent US8278344B2, “Heterocyclic inhibitors of necroptosis” (The Brigham and Women's Hospital, Inc., priority 2007, dated 2012).

Data set [1] deals with FADD-deficient variant of human Jurkat T cells. As to the kind of experiment: Necroptosis inhibition in FADD-deficient Jurkat T cells treated with TNF-α, ATP-based viability. It counts as cell-based. The conditions noted are these: for EC50: Jurkat, 10 ng/mL human TNF-α, 24 hours; for necroptosis inhibitory activity in words: TNF-α treated FADD-deficient Jurkat T cells. Here is the method: Stock solutions (30 mM) in DMSO were initially prepared and then diluted with DMSO to give testing solutions, which were added to each test well. The final DMSO concentration was 0.5%. Eleven compound test concentrations (0.030-100 μM) were used. Each concentration was done in duplicate.
Cell viability assessments were performed using a commercial luminescent ATP-based assay kit (CellTiter-Glo, Promega, Madison, Wis.) according to the manufacturer's instructions. Briefly, 40 μL of the cell lysis/ATP detection reagent was added to each well. Plates were incubated on a rocking platform for 10 minutes at room temperature and luminescence was measured using a Wallac Victor 3 plate-reader (Perkin Elmer, Wellesley, Mass.). Cell viability was expressed as a ratio of the signal in the well treated with TNF-α and compound to the signal in the well treated with compound alone. […] EC50 values were calculated using nonlinear regression analysis of sigmoid dose-response (variable slope) curves from plots of log[I] verses viability values.

Data set [2] is described as follows: Microsome stability in pooled mouse liver microsomes. It is filed as in vitro ADME. The conditions noted are these: 3 μM compound, 0.5 mg/mL microsome protein, 1 mM NADPH; for microsomal CLint at 3 μM: in vitro intrinsic clearance, N=3, read-out: CLint (μL/minutes/mg protein). The protocol: Microsome stability was determined in pooled mouse liver microsomes. Test compound (3 μM final concentration) along with 0.5 mg/mL microsome protein and 1 mM NADPH was incubated for 0, 5, 15, 30 and 60 minutes. Incubation of test compound and microsomes in the absence of NADPH served as a negative control. The samples were quenched with methanol and centrifuged for 20 minutes at 2500 rpm to precipitate proteins. Sample supernatants were analyzed (N=3) by LC/MS. The In peak area ratio (compound peak area/internal standard peak area) was plotted against time and the slope of the line determined to give the elimination rate constant [k=(−1)(slope)]. The half life (t1/2 in minutes), and the in vitro intrinsic clearance (CLint in μL/min/mg protein) were calculated according to the following equations, where V=incubation volume in μL/mg protein: […]
In general terms: Liver microsomes are vesicles of endoplasmic reticulum, rich in cytochrome P450 enzymes.

[3] abbreviates: Table 2, Formula (I-a), standard deviation <10%.

By EC50 is commonly meant the concentration giving half of the maximal effect. As to `CC(NC(=O)c1cccn1C(C)C)c1c(F)cccc1Cl` (racemic) [Compound 89], the concentration giving a half-maximal response (EC50) in data set [1] (Table 5, pyrrole compounds) is 2100 nM.
Still for that read-out and setting: next, `CCCCC(NC(=O)c1cccn1C(C)C)c1c(F)cccc1Cl` (racemic) [Compound 92]: above 20000 nM.
`Fc1cccc(Cl)c1CNCc1snnc1C1CC1` [Compound 13] gave a 50% effective concentration (EC50) in data set [1] (Table 3, Formula (I-b)) above 100000 nM. Moreover, the “necroptosis inhibitory activity in words” value in data set [1] is “inactive”.
The matching figures for `O=C(NC(=O)c1c(F)cccc1Cl)c1snnc1C1CC1` [Compound 16]: above 100000 nM and “inactive”.
`O=C(NCc1c(F)cccc1Cl)c1snnc1C1CCC1` [Compound 33] showed a half-maximal effective concentration (EC50) in data set [1] (setting [3]) of 600 nM.
`O=C(NCc1c(F)cccc1Cl)c1snnc1C1CCCC1` [Compound 34] gave a concentration giving a half-maximal response (EC50) in data set [1] (setting [3]) of 1900 nM.
`O=C(NCc1c(F)cccc1Cl)c1snnc1C1CCCCC1` [Compound 35]: the concentration giving a half-maximal response (EC50) in data set [1] (setting [3]) amounted to 6000 nM. This EC50 lies about 3.2-fold higher than the previous one.
On the same count and under the same terms, next, `CC(C)(C)c1nnsc1C(=O)NCc1c(F)cccc1Cl` [Compound 36]: 18000 nM.
The same measure, in the same setting: next, `O=C(NCc1c(F)cccc1Cl)c1snnc1-c1ccccc1` [Compound 37]: above 100000 nM.
Same read-out and setting: then `O=C(NCc1c(F)cccc1F)c1snnc1C1CC1` [Compound 39], with 1500 nM; and `O=C(NCc1ccccc1F)c1snnc1C1CC1` [Compound 40], with 1500 nM.
Turning to `Cc1cccc(Cl)c1CNC(=O)c1snnc1C1CC1` [Compound 41], in data set [1] (setting [3]), the EC50 was 10000 nM.
On to `O=C(NCc1c(F)cccc1C(F)(F)F)c1snnc1C1CC1` [Compound 44], for which the 50% effective concentration (EC50) in data set [1] (setting [3]) was above 100000 nM.
The same measure, in the same setting: then `O=C(NCc1cccc2ccccc12)c1snnc1C1CC1` [Compound 45], with above 100000 nM.
Usually half-life stands for the time needed for the level to fall by half in the phase considered. Read a high half-life as slow loss. In the case of `Cn1c(Cl)ccc1C(=O)NCc1c(F)cccc1Cl` [Compound 78], in data set [2], the half-life at 3 μM came out at 15.4 min and the microsomal CLint at 3 μM is 89.8 ± 3 µL/min/mg. In data set [1] (Table 5, pyrrole compounds), the response was half-maximal at 740 nM (EC50).
`O=C(NCc1c(F)cccc1Cl)c1ccc[nH]1` [Compound 80]: the concentration for a half-maximal effect (EC50) in data set [1] (Table 5, pyrrole compounds) was above 20000 nM.
On the same count and under the same terms, then `Cc1cc[nH]c1C(=O)NCc1c(F)cccc1Cl` [Compound 81], with 4900 nM; and `Cc1ccn(C)c1C(=O)NCc1c(F)cccc1Cl` [Compound 82], with above 20000 nM.
Same read-out and setting: then `Cc1ccn(C(C)C)c1C(=O)NCc1c(F)cccc1Cl` [Compound 83], with 7800 nM.
Turning to `Cn1cccc1C(=O)NCc1c(F)cccc1Cl` [Compound 84], in data set [2], the half-life at 3 μM is 17.2 min and the microsomal CLint at 3 μM is 80.6 ± 4.4 µL/min/mg. The same compound displayed a 50% effective concentration (EC50) in data set [1] (Table 5, pyrrole compounds) of 900 nM.
Take `CC(C)n1cccc1C(=O)NCc1c(F)cccc1Cl` [Compound 85]: the EC50 in data set [1] (Table 5, pyrrole compounds) amounted to 440 nM.
`O=C(NCc1c(F)cccc1Cl)c1cccn1Cc1ccccc1` [Compound 86] displayed a concentration giving a half-maximal response (EC50) in data set [1] (Table 5, pyrrole compounds) above 20000 nM.
As for `CC(c1ccccc1)n1cccc1C(=O)NCc1c(F)cccc1Cl` (stereo not drawn) [Compound 87], the EC50 in data set [1] (Table 5, pyrrole compounds) was above 20000 nM.
On to `CN(Cc1c(F)cccc1Cl)C(=O)c1cccn1C` [Compound 88], for which the EC50 in data set [1] (Table 5, pyrrole compounds) was above 20000 nM.
Still for that read-out and setting: then `CC(C)n1cccc1C(=O)N[C@@H](C)c1c(F)cccc1Cl` [Compound 90], with 520 nM; and `CC(C)n1cccc1C(=O)N[C@H](C)c1c(F)cccc1Cl` [Compound 91], with above 20000 nM.
`CCn1c(Br)ccc1C(=O)NCc1c(F)cccc1Cl` [Compound 93]: the midpoint of the response in data set [1] (Table 5, pyrrole compounds), the EC50, lay at 2400 nM.
Take `Cn1c(C#N)ccc1C(=O)NCc1c(F)cccc1Cl` [Compound 94]: in data set [2], the half-life at 3 μM stood at 42.3 min and the microsomal CLint at 3 μM stood at 32.8 ± 2.2 µL/min/mg. Further, the midpoint of the response in data set [1] (Table 5, pyrrole compounds), the EC50, lay at 340 nM.
Consider `CCn1c(C#N)ccc1C(=O)NCc1c(F)cccc1Cl` [Compound 95], for which, in data set [1] (Table 5, pyrrole compounds), the EC50 is 1900 nM. That is a single-digit micromolar value.
Regarding `CC(C)n1c(C#N)ccc1C(=O)NCc1c(F)cccc1Cl` [Compound 96], it took 1400 nM to reach a half-maximal effect in data set [1] (Table 5, pyrrole compounds) (EC50).
With `C[C@H](NC(=O)c1ccc(C#N)n1C)c1c(F)cccc1Cl` [Compound 97], in data set [2], the half-life at 3 μM was found to be 236 min and the microsomal CLint at 3 μM was 5.9 ± 2.5 µL/min/mg.
Compound `Cn1cc(C#N)cc1C(=O)NCc1c(F)cccc1Cl` [Compound 98] showed a concentration giving a half-maximal response (EC50) in data set [1] (Table 5, pyrrole compounds) above 20000 nM.
The same measure, in the same setting: then `CC(C)n1cc(C#N)cc1C(=O)NCc1c(F)cccc1Cl` [Compound 99], with above 20000 nM.
